Test results reported in patent US20250090699A1, “FAP TARGETING CYCLIC PEPTIDES AND CONJUGATES THEREOF” (Novartis AG, priority 2023, published 2025).
Structures can show the parent of a compound that is named as a salt. Starred links: 1 amine or outer side, 2 acyl side, 3 side chain; linkers in the order of their positions; H or OH if unused. Non-standard residues stand in square brackets, D forms with d. Residues, ends and D or L forms follow the SMILES beside them. Groups on a side chain read outwards from the residue. Primed or numbered codes have the meaning given here. *: point of attachment. F(4amPEG2NHDOTA-Lu) = lutetium complex of (S)-2,2',2''-(10-(1-(4-(2-amino-2-carboxyethyl)phenyl)-3,12-dioxo-5,8-dioxa-2,11-diazatridecan-13-yl)-1,4,7,10-tetraazacyclododecane-1,4,7-triyl)triacetic acid (Phe with 4-aminomethyl-PEG2-DOTA-Lu), O=C([O-])CN1CCN(CC(=O)[O-])CCN(CC(=O)NCCOCCOCC(=O)NCc2ccc(C[C@H](N[*:1])C(=O)[*:2])cc2)CCN(CC(=O)[O-])CC1.[Lu+3]; K(COpipzaa) = N6-(4-(carboxymethyl)piperazine-1-carbonyl)-L-lysine, O=C(NCCCC[C@H](N[*:1])C(=O)[*:2])N1CCN(CC(=O)[*:3])CC1; COpipzaa = 4-(carboxymethyl)piperazine-1-carbonyl, O=C(O)CN1CCN(C(=O)*)CC1; F(4amPEG2NHDOTA-Ga)″ = Phe with 4-aminomethyl-PEG2-NH-DOTA, Ga complex; hS(Pr) = O-propyl-L-homoserine, CCCOCC[C@H](N[*:1])C(=O)[*:2]; Phe(4-CH2NH2) = NCc1ccc(C[C@H](N)C(=O)O)cc1; Piperazinyl(4-CH2COOH) = O=C(O)CN1CCN(*)CC1; X7 = CCCCC[C@@H](O)[C@H](N[*:1])C(=O)[*:2]; 3Pal(6-NH2) = Nc1ccc(C[C@H](N)C(=O)O)cn1; NMeAla(cPent) = CN[C@@H](CC1CCCC1)C(=O)O; AEF = NCCOc1ccc(C[C@H](N)C(=O)O)cc1; Nicotinoyl(6-F) = O=C(c1ccc(F)nc1)*; NMeCba = CN[C@@H](CC1CCC1)C(=O)O; NMeF = CN[C@@H](Cc1ccccc1)C(=O)O; Aoc(2) = CCCCCC[C@H](N)C(=O)O; Ahp(2) = CCCCC[C@H](N)C(=O)O; AEEA = NCCOCCOCC(=O)O; CO = O=C([*:1])[*:2]

Legend:
mouse FAP [1] = target: T1, mouse FAP (Mus musculus, UniProt P97321); test: Surface plasmon resonance (SPR) for peptide affinity, mouse FAP; format: binding
T1 construct: biotinylated His, Avi tag, mouse FAP (26-761, FAP-M82Q5); His; Avi tag (biotinylated); purchased AcroBiosystems FAP-M82Q5
T1 sequence (P97321 26-761): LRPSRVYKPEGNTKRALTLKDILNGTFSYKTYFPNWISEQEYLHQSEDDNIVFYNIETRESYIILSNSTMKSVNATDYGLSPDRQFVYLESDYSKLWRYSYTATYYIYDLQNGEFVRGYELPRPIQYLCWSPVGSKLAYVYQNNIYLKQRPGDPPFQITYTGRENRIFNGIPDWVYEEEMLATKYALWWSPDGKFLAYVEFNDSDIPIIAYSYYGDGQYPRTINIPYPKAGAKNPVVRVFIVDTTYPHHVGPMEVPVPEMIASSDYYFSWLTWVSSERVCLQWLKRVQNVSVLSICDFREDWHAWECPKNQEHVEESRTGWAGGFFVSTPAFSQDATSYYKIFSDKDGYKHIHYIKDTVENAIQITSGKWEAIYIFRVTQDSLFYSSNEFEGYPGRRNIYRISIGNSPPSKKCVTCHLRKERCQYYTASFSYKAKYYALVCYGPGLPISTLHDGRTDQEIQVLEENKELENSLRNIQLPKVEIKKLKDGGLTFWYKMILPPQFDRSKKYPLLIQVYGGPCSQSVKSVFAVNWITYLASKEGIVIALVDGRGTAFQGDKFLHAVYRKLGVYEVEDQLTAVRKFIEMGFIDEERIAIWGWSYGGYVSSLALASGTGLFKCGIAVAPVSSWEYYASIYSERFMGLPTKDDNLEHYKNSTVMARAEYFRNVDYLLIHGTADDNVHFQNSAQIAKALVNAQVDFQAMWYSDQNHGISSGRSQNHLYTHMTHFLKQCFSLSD
How it was run: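 KD values come from a 1:1 kinetic fit of single-cycle SPR data: 8 peptide concentrations, 25 °C, 30 μL/min, HEPES-buffered saline pH 7.6 with 2% DMSO. Targets were His/Avi-tagged human (26-760) or mouse (26-761) FAP, amine-coupled to CM5 or held on a CAPture chip.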

human FAP = target: T2, human FAP (Homo sapiens, UniProt Q12884); test: Enzymatic FAP competition assay (Z-Gly-Pro-AMC fluorescence), human FAP; format: biochemical; conditions: read-out: h. FAP, Enz., IC50
T2 construct: the biotinylated His, Avi tag, human FAP (26-760, FAP-H82Q6); His; Avi tag (biotinylated); purchased AcroBiosystems FAP-H82Q6
T2 sequence (Q12884 26-760): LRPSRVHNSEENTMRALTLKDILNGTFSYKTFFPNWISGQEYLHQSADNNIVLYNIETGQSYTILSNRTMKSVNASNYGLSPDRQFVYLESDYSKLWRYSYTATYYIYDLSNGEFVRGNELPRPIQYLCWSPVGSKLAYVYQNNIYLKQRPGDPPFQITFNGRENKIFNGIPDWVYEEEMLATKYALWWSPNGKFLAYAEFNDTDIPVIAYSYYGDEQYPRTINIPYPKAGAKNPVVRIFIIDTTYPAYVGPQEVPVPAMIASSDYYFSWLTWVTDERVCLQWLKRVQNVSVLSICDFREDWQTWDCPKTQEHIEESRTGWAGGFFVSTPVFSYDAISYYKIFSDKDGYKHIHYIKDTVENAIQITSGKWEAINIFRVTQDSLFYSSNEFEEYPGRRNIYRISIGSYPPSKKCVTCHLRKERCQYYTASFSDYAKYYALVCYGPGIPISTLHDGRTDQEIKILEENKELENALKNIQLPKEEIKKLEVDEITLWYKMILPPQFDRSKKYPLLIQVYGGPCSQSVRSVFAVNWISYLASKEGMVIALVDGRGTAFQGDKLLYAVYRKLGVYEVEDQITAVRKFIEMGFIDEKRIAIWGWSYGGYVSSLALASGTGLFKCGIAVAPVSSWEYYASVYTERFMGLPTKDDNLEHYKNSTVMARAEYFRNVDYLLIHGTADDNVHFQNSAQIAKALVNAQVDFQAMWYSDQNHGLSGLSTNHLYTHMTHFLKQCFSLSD
How it was run: (§1)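 IC50 values come from curve fitting of duplicate % inhibition data on AMC fluorescence (ex 380, em 460 nm) after 4 h at 22-24° C with 50 μM Z-Gly-Pro-AMC. Beforehand, peptides up to 1 μM (14 levels) sat 24 h with 0.01 nM human (26-760) or mouse (26-761) tagged FAP in phosphate buffer pH 7.5, NaCl, Tween20, 1% DMSO.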

mouse FAP [2] = target: T1, mouse FAP; test: Enzymatic FAP competition assay (Z-Gly-Pro-AMC fluorescence), mouse FAP; format: biochemical; conditions: read-out: m. FAP, Enz., IC50
How it was run: as §1

Kd (mouse FAP [1]) | IC50 (human FAP) | IC50 (mouse FAP [2]) | Molecule
0.32 nM | 0.063 nM | 0.31 nM | CCCCC[C@@H]1NC(=O)[C@H](Cc2ccc(O)cc2)NC(=O)[C@H](CC2CCC2)N(C)C(=O)CNC(=O)CNC(=O)[C@H]2CCCN2C(=O)[C@H](CC(=O)O)NC(=O)[C@H](Cc2ccc(O)cc2)NC(=O)CNC(=O)[C@H](Cc2c[nH]c3ccccc23)NC1=O [Example A62, Gly-Gly-NMecBuA-Tyr-Ahp-Trp-Gly-Tyr-Asp-D-Pro] (cyclo([Ahp(2)]WGYD[dP]GG[NMeCba]Y))
0.54 nM | 0.192 nM | 0.93 nM | CCCCC[C@@H]1NC(=O)[C@H](Cc2ccc(OCCN)cc2)NC(=O)[C@H](Cc2ccccc2)N(C)C(=O)CNC(=O)CNC(=O)[C@H]2CCCN2C(=O)[C@H](CC(=O)O)NC(=O)[C@H](Cc2ccc(N)nc2)NC(=O)CNC(=O)[C@H](Cc2c[nH]c3ccccc23)NC1=O [Example A45, Gly-Gly-NMePhe-F(4OEtNH2)-Ahp-Trp-Gly-3PyA(6NH2)-Asp-D-Pro, TFA salt] (cyclo([AEF][Ahp(2)]WG[3Pal(6-NH2)]D[dP]GG[NMeF]))
0.25 nM | 0.055 nM | 0.4 nM | CCCCC[C@@H](O)[C@@H]1NC(=O)[C@H](Cc2ccc(O)cc2)NC(=O)[C@H](Cc2ccccc2)N(C)C(=O)CNC(=O)CNC(=O)[C@H]2CCCN2C(=O)[C@H](CC(=O)O)NC(=O)[C@H](Cc2ccc(O)cc2)NC(=O)CNC(=O)[C@H](Cc2c[nH]c3ccccc23)NC1=O [Example A34, Gly-Gly-NMePhe-Tyr-Aoc(3R-OH)-Trp-Gly-Tyr-Asp-D-Pro] (cyclo(D[dP]GG[NMeF]Y[X7]WGY))
< 0.084 nM | 0.019 nM | 0.049 nM | Glu-Gly-NMePhe-F(4amPEG2NHDOTA-Lu)-hS(Pr)-Trp-Gly-K(COpipzaa)-Asp-D-Pro (cyclo(EG[NMeF][F(4amPEG2NHDOTA-Lu)][hS(Pr)]WG[K(COpipzaa)]D[dP]); also: Lu complex of DOTA) [Example C5]
< 0.014 nM | 0.006 nM | 0.022 nM | CCCCCC[C@@H]1NC(=O)[C@H](Cc2ccc(CNC(=O)COCCOCCNC(=O)c3ccc(F)nc3)cc2)NC(=O)[C@H](Cc2ccccc2)N(C)C(=O)CNC(=O)CNC(=O)[C@H]2CCCN2C(=O)[C@H](CC(=O)O)NC(=O)[C@H](CCCCNC(=O)N2CCN(CC(=O)O)CC2)NC(=O)CNC(=O)[C@H](Cc2c[nH]c3ccccc23)NC1=O [Example C55, Gly-Gly-NMePhe-F(4amPEG2NHCOPy3(4F))-Aoc-Trp-Gly-K(COpipzaa)-Asp-D-Pro] (cyclo([Aoc(2)]WGK([CO-Piperazinyl(4-CH2COOH)])D[dP]GG[NMeF][Phe(4-CH2NH2)]([AEEA-Nicotinoyl(6-F)])))
< 0.016 nM | 0.012 nM | 0.032 nM | Gly-Gly-NMePhe-F(4amPeG2NHDOTA-Ga)-Ahp-Trp-Gly-K(COpipzaa)-asp-D-Pro (cyclo(GG[NMeF][F(4amPEG2NHDOTA-Ga)″][Ahp(2)]WGK(COpipzaa)D[dP]); also: Ga in DOTA chelate) [Example C46]
2.7 nM | 0.54 nM | 2.5 nM | CCCCC[C@@H]1NC(=O)[C@H](Cc2ccc(O)cc2)NC(=O)[C@H](CC2CCCC2)N(C)C(=O)CNC(=O)[C@H](CCCCN)NC(=O)[C@H]2CCCN2C(=O)[C@H](CC(=O)O)NC(=O)[C@H](Cc2ccc(O)cc2)NC(=O)CNC(=O)[C@H](Cc2c[nH]c3ccccc23)NC1=O [Example A44, Lys-Gly-NMecPenA-Tyr-Ahp-Trp-Gly-Tyr-Asp-D-Pro, TFA salt] (cyclo([Ahp(2)]WGYD[dP]KG[NMeAla(cPent)]Y))
